Measurements from patent US7635697B2, “Farnesyl protein transferase inhibitors and methods for treating proliferative diseases” (Schering Corporation, priority 2004, dated 2009).
“And” between values parts separate entries of the source, which are not always exact repeats. Equal values may be shown once.

Assays:
[1] = biological target: purified human farnesyl protein transferase (Homo sapiens, UniProt P49354+P49356); assay: FPT activity: transfer of [3H] farnesyl from [3H] farnesyl pyrophosphate to biotinylated H-ras peptide (SPA); format: biochemical; settings: ranges are stated for a listed group of compounds; range ends given as 'about <' / 'about >'
Protocol: FPT activity was determined by measuring the transfer of [^3H] farnesyl from [^3H] farnesyl pyrophosphate to a biotinylated peptide derived from the C-terminus of H-ras (biotin-CVLS). The reaction mixture contains: 50 mM Tris pH7.7, 5 mM MgCl2, 5 μM Zn^++, 5 mM DTT, 0.1% Triton-X, 0.05 μM peptide, 0.03 nM purified human farnesyl protein transferase, 0.180 μM [^3H] farnesyl pyrophosphate, plus the indicated concentration of tricyclic compound or vehicle control in a total volume of 100 μl. The reaction was incubated in a Vortemp shaking incubator at 37° C., 45 RPM for 60 minutes and stopped with 150 μl of 0.25 M EDTA containing 0.5% BSA and 1.3 mg/ml Streptavidin SPA beads. Radioactivity was measured in a Wallach 1450 Microbeta liquid scintillation counter. Percent inhibition was calculated relative to the vehicle control.

[2] = test system: Human tumor cells; assay: Soft Agar Assay (anchorage-independent growth, colony count); format: cell-based; settings: ranges are stated for a listed group of compounds, range ends given as 'about <' / 'about >'
Protocol: Anchorage-independent growth is a characteristic of tumorigenic cell lines. Human tumor cells can be suspended in growth medium containing 0.3% agarose and an indicated concentration of a farnesyl transferase inhibitor. The solution can be overlayed onto growth medium solidified with 0.6% agarose containing the same concentration of farnesyl transferase inhibitor as the top layer. After the top layer is solidified, plates can be incubated for 10-16 days at 37° C. under 5% CO2 to allow colony outgrowth. After incubation, the colonies can be stained by overlaying the agar with a solution of MTT (3-[4,5-dimethyl-thiazol-2-yl]-2,5-diphenyltetrazolium bromide, Thiazolyl blue) (1 mg/mL in PBS). Colonies can be counted and the IC50's can be determined.

IC50 [1] | IC50 ([2]; Homo sapiens) | IC50 [2] | Structure (SMILES)
0.05 to 8.9 nM and 0.05 to 2.7 nM and 0.05 to 1.2 nM | 0.3 to 50 nM | – | Cc1cn(Cc2cccc(NC(=O)C3CN(C4c5ccc(Cl)cc5CCc5cccnc54)CCN3C(=O)Cc3ccc(Cl)cc3)c2)cn1 (centres unmarked) [(28.1)]
0.05 to 8.9 nM | 0.3 to 50 nM | – | O=C(Nc1cccc(Cn2ccnc2)c1)[C@H]1CNCCN1C1c2ccc(Cl)cc2CCc2cccnc21 (some centres unmarked) [(14.3)]
0.05 to 8.9 nM | – | – | Cc1cn(Cc2cccc(NC(=O)C3CN(C4c5ccc(Cl)cc5CCc5cccnc54)CCN3C(=O)Nc3ccc(Cl)cc3)c2)cn1 (centres unmarked) [(27.1)]
0.05 to 8.9 nM | 0.3 to 50 nM | – | O=C(Nc1cccc(Cn2ccnc2)c1)[C@H]1CN(C2c3ccc(Cl)cc3CCc3cccnc32)CCN1 (mixture of isomers) [(14.2)]
0.05 to 8.9 nM | 0.3 to 50 nM | – | NC(=O)N1CCC(CC(=O)N2CCN(C3c4ccc(Cl)cc4CCc4cccnc43)C(C(=O)Nc3cccc(Cn4ccnc4)c3)C2)CC1 (centres unmarked) [(45.1)]
0.05 to 8.9 nM | 0.3 to 50 nM | – | Cc1cn(Cc2cccc(NC(=O)C3CN([C@@H]4c5ccc(Cl)cc5CCc5cc(Br)cnc54)CCN3)c2)cn1 (some centres unmarked) [(4.2)]
0.05 to 8.9 nM | – | – | O=C(Nc1cccc(Cn2ccnc2)c1)[C@@H]1CN(C2c3ccc(Cl)cc3CCc3cc(Br)cnc32)CCN1C1c2ccc(Cl)cc2CCc2cc(Br)cnc21 (some centres unmarked) [(12.1)]
0.05 to 8.9 nM and 0.05 to 2.7 nM and 0.05 to 1.2 nM | 0.3 to 50 nM | – | Cc1cn(Cc2cccc(NC(=O)C3CN([C@@H]4c5ccc(Cl)cc5CCc5cccnc54)CCN3C(=O)CC3CCN(C(N)=O)CC3)c2)cn1 (some centres unmarked) [(30.1)]
0.05 to 8.9 nM | – | – | O=C(Nc1cccc(Cn2ccnc2)c1)[C@@H]1CN(C2c3ccc(Cl)cc3CCc3cc(Br)cnc32)CCN1 (some centres unmarked) [(12.2)]
0.05 to 8.9 nM and 0.05 to 2.7 nM and 0.05 to 1.2 nM | – | – | CC(C)(C)OC(=O)N1CCN(C2c3ccc(Cl)cc3CCc3cc(Br)cnc32)CC1C(=O)Nc1cccc(Cn2ccnc2)c1 (single isomer, unassigned) [(1.4)]
0.05 to 8.9 nM | – | – | Cc1cn(CCc2ccccc2NC(=O)[C@H]2CN([C@H]3c4ccc(Cl)cc4CCc4cccnc43)CCN2C(=O)OC2CCCCC2)cn1 [(47.1)]
0.05 to 8.9 nM and 0.05 to 2.7 nM and 0.05 to 1.2 nM | 0.3 to 50 nM | – | O=C(Nc1cccc(Cn2ccnc2)c1)C1CN(C2c3ccc(Cl)cc3CCc3cccnc32)CCN1C(=O)OC1CCCCC1 (centres unmarked) [(15.1)]
– | 0.3 to 50 nM | – | CC(C)(C)OC(=O)N1CCN([C@@H]2c3ccc(Cl)cc3CCc3cccnc32)C(C(=O)Nc2cccc(Cn3ccnc3)c2)C1 (some centres unmarked) [(40.2)]
0.05 to 8.9 nM and 0.05 to 2.7 nM and 0.05 to 1.2 nM | 0.3 to 50 nM | – | Cc1cn(Cc2cccc(NC(=O)C3CN(C4c5ccc(Cl)cc5CCc5cccnc54)CCN3C(=O)OC3CCCCC3)c2)cn1 (centres unmarked) [(21.1)]
0.05 to 8.9 nM and 0.05 to 2.7 nM and 0.05 to 1.2 nM | 0.3 to 50 nM | – | CC(C)(C)OC(=O)N1CCN(C2c3ccc(Cl)cc3CCc3cc(Br)cnc32)CC1C(=O)Nc1cccc(Cn2ccnc2)c1 (single isomer, unassigned) [(1.3)]
0.05 to 8.9 nM and 0.05 to 2.7 nM and 0.05 to 1.2 nM | 0.3 to 50 nM | – | Cc1cncn1Cc1cccc(NC(=O)C2CN(C3c4ccc(Cl)cc4CCc4cccnc43)CCN2C(=O)OC2CCCCC2)c1 (single isomer, unassigned) [(32.1)]
0.05 to 8.9 nM and 0.05 to 2.7 nM and 0.05 to 1.2 nM | 0.3 to 50 nM | – | O=C(Nc1cccc(Cn2ccnc2)c1)C1CN([C@@H]2c3ccc(Cl)cc3CCc3cccnc32)CCN1C(=O)OC1CCCCC1 (some centres unmarked) [(15.2)]
– | – | < 0.5 nM | Cc1nccn1Cc1cccc(NC(=O)C2CN(C3c4ccc(Cl)cc4CCc4cccnc43)CCN2C(=O)OC2CCCCC2)c1 (centres unmarked) [(31.1)]
0.05 to 8.9 nM | 0.3 to 50 nM | – | Cc1cn(Cc2cccc(NC(=O)C3CN(C4c5ccc(Cl)cc5CCc5cc(Br)cnc54)CCN3)c2)cn1 (centres unmarked) [(4.3)]
0.05 to 8.9 nM and 0.05 to 2.7 nM | 0.3 to 50 nM | – | Cc1cn(Cc2cccc(NC(=O)C3CN(C4c5ccc(Cl)cc5CCc5cc(Br)cnc54)CCN3C(=O)NC3CCCCC3)c2)cn1 (centres unmarked) [(6.1)]
– | 0.3 to 50 nM | – | O=C(Nc1cccc(Cn2ccnc2)c1)[C@H]1CN(C2c3ccc(Cl)cc3CCc3cccnc32)CCN1C1c2ccc(Cl)cc2CCc2cccnc21 (some centres unmarked) [(14.1)]
0.05 to 8.9 nM and 0.05 to 2.7 nM | 0.3 to 50 nM | – | Cc1cn(Cc2cccc(NC(=O)C3CN([C@@H]4c5ccc(Cl)cc5CCc5cc(Br)cnc54)CCN3C(=O)NC3CCCCC3)c2)cn1 (some centres unmarked) [(5.1)]
0.05 to 8.9 nM and 0.05 to 2.7 nM and 0.05 to 1.2 nM | – | – | Cc1cn(Cc2cccc(NC(=O)C3CN(C4c5ccc(Cl)cc5CCc5cccnc54)CCN3C(=O)NC3CCCCC3)c2)cn1 (centres unmarked) [(26.1)]
0.05 to 8.9 nM and 0.05 to 2.7 nM and 0.05 to 1.2 nM | – | – | Cc1cn(Cc2cccc(NC(=O)C3CN(C4c5ccc(Cl)cc5CCc5cccnc54)CCN3S(C)(=O)=O)c2)cn1 (centres unmarked) [(29.1)]
0.05 to 8.9 nM and 0.05 to 2.7 nM and 0.05 to 1.2 nM | 0.3 to 50 nM | – | Cc1cn(Cc2cccc(NC(=O)C3CN([C@@H]4c5ccc(Cl)cc5CCc5cccnc54)CCN3C(=O)OC3CCCCC3)c2)cn1 (some centres unmarked) [(22.1)]
– | 0.3 to 50 nM | – | CC(C)(C)OC(=O)N1CCN(C2c3ccc(Cl)cc3CCc3cccnc32)C(C(=O)Nc2cccc(Cn3ccnc3)c2)C1 (centres unmarked) [(40.1)]
0.05 to 8.9 nM | 0.3 to 50 nM | – | O=C(C1CN(C2c3ccc(Cl)cc3CCc3cccnc32)CCN1C(=O)OC1CCCCC1)N(Cc1ccccc1)c1cccc(Cn2ccnc2)c1 (centres unmarked) [(16.1)]
0.05 to 8.9 nM | – | – | Cc1cncn1Cc1cccc(NC(=O)C2CN(C3c4ccc(Cl)cc4CCc4cccnc43)CCN2C(=O)OC2CCCCC2)c1 (single isomer, unassigned) [(32.2)]
